# Source: patent US8507533B2, “Glucagon receptor modulators” (Pfizer Inc., priority 2011, dated 2013)
# Target: human glucagon receptor (Homo sapiens (Human), UniProt P47871)
# Test: Glucagon cAMP Assay (Cisbio cAMP detection)
# Type: cell-based
# Conditions: CHOK1 cells stably transfected with the human glucagon receptor; block of glucagon induced cAMP production; Kb by modified Cheng-Prusoff equation
# Protocol: The Cisbio cAMP detection assay is used to determine the ability of punitive glucagon antagonist to block glucagon induced cAMP production. Potential glucagon antagonists are re-suspended and diluted in 100% DMSO. Prior to use in the Glucagon cAMP assay 100×DMSO compound stocks are diluted 20× with DMEM-F12 media (Invitrogen) containing either 0.1% or 4% BSA. […] 2 μls of 5% DMSO or known glucagon antagonist are added to each plate to define the assay window. CHOK1 cells stably transfected with the human glucagon receptor are removed from culture flasks with cell dissociation buffer. Cell pellets are re-suspended, at a concentration of 8.3e^5 cells/ml in DMEM-F12 with or without 4% BSA and 200 uM IBMX. 6 μls of cell suspensions are added to the assay plates. Plates are incubated for 20 min at room temperature prior to the addition of a 100 μM challenge dose of glucagon. On a separate plate glucagon dose response curves are run to determine the EC50 of glucagon. After a 30 min room temperature incubation the reaction is terminated by the addition of lysis buffer containing the cAMP detection reagents. Plates are incubated for an additional 60 min at room temperature prior to being read on the Perkin Elmer fluorescent plate reader. Raw is converted to nM of cAMP produced based on a cAMP standard curve. Converted data is then analyzed using the Pfizer data analysis program. IC50 values are determined from the generated sigmoidal dose response curves. Kb values are calculated using a modified Cheng-Prusoff equation. N is the number of times the compound was assayed.
# Chain of human glucagon receptor (P47871 26-477): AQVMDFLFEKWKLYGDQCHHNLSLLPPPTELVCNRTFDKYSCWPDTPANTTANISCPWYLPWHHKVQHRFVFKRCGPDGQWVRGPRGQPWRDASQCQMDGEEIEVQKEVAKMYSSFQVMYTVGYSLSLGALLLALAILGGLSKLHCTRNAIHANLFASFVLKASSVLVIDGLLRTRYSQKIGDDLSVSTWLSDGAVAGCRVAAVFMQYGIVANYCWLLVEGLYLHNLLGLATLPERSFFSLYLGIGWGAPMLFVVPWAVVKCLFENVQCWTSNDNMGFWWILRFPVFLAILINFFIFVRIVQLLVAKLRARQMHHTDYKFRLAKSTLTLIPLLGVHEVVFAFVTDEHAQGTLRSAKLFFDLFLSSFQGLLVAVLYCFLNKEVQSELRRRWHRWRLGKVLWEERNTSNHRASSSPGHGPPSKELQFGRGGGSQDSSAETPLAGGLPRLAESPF
row,Kb [nM],Structure (SMILES)
1,1500,"CCCC(Nc1ccc(-n2cnc(C(F)(F)F)c2)c(C)c1)c1ccc(C(=O)NCCC(=O)O)cc1 (racemic) [Example 1, (+/−)-3-(4-(1-(3-methyl-4-(4-(trifluoromethyl)-1H-imidazol-1-yl)phenylamino)butyl)benzamido)propanoic acid]"
2,1820,"CCCC(Oc1ccc(-n2cc(C(F)(F)F)cn2)cc1)c1ccc(C(=O)NCCC(=O)O)cn1 (racemic) [Example 3, (+/−)-3-(6-(1-(4-(4-(trifluoromethyl)-1H-pyrazol-1-yl)phenoxy)butyl)nicotinamido)propanoic acid]"
3,1270,"CC(C)CC(Cc1ccc(-n2cc(C(F)(F)F)cn2)cc1)c1ccc(C(=O)NCCC(=O)O)cc1 (racemic) [Example 4, (+/−)-3-(4-(4-methyl-1-(4-(4-(trifluoromethyl)-1H-pyrazol-1-yl)phenyl)pentan-2-yl)benzamido)propanoic acid]"
4,155,"O=C(O)CCNC(=O)c1ccc(C(Nc2ccc(-n3cnc(C(F)(F)F)c3)nc2)C2CCCC2)cc1 (racemic) [Example 8, (+/−)-3-(4-(cyclopentyl(6-(4-(trifluoromethyl)-1H-imidazol-1-yl)pyridine-3-ylamino)methyl)benzamido)propanoic acid]"
5,572,"CCCC(Nc1ccc(-n2cnc(C(F)(F)F)c2)nc1)c1ccc(C(=O)NCCC(=O)O)cc1 (racemic) [Example 9, (+/−)-3-(4-(1-(6-(4-(trifluoromethyl)-1H-imidazol-1-yl)pyridine-3-ylamino)butyl)benzamido)propanoic acid]"
6,800,"CCCC(Oc1ccc(-n2cc(SC)cn2)cc1)c1ccc(C(=O)NCCC(=O)O)cc1 (racemic) [Example 20, (+/−)-3-(4-(1-(4-(4-(methylthio)-1H-pyrazol-1-yl)phenoxy)butyl)benzamido)propanoic acid]"
7,824,"CCCC(Oc1ccc(-n2ccc(C(C)(C)C)n2)cc1)c1ccc(C(=O)NCCC(=O)O)cc1 (racemic) [Example 21, (+/−)-3-(4-(1-(4-(3-tert-butyl-1-1H-pyrazol-1-yl)phenoxy)butyl)benzamido)propanoic acid]"
8,1030,"CCCC(Oc1ccc(-n2cc(CC)c(C)n2)cc1)c1ccc(C(=O)NCCC(=O)O)cc1 (racemic) [Example 24, (+/−)-3-(4-(1-(4-(4-ethyl-3-methyl-1H-pyrazol-1-yl)phenoxy)butyl)benzamido)propanoic acid]"
9,1120,"CCCC(Oc1ccc(-n2nc(CC)cc2CC)cc1)c1ccc(C(=O)NCCC(=O)O)cc1 (racemic) [Example 25, (+/−)-3-(4-(1-(4-(3,5-diethyl-1H-pyrazol-1-yl)phenoxy)butyl)benzamido)propanoic acid]"
10,1080,"CCCC(Oc1ccc(-n2ccc(C(C)C)n2)cc1)c1ccc(C(=O)NCCC(=O)O)cc1 (racemic) [Example 27, (+/−)-3-(4-(1-(4-(3-isopropyl-1H-pyrazol-1-yl)phenoxy)butyl)benzamido)propanoic acid]"
11,1360,"CCCC(Oc1ccc(-n2ccc(C)n2)cc1)c1ccc(C(=O)NCCC(=O)O)cc1 (racemic) [Example 29, (+/−)-3-(4-(1-(4-(3-methyl-1H-pyrazol-1-yl)phenoxy)butyl)benzamido)propanoic acid]"
12,1410,"CCCC(Oc1ccc(-n2nccn2)cc1)c1ccc(C(=O)NCCC(=O)O)cc1 (racemic) [Example 30, (+/−)-3-(4-(1-(4-(2H-1,2,3-triazol-2-yl)phenoxy)butyl)benzamido)propanoic acid]"
13,1590,"CCCC(Oc1ccc(-n2nc(C)cc2OCC)cc1)c1ccc(C(=O)NCCC(=O)O)cc1 (racemic) [Example 32, (+/−)-3-(4-(1-(4-(5-ethoxy-3-methyl-1H-pyrazol-1-yl)phenoxy)butyl)benzamido)propanoic acid]"
14,1560,"CCCC(Oc1ccc(-n2nc(C)cc2OC)cc1)c1ccc(C(=O)NCCC(=O)O)cc1 (racemic) [Example 33, (+/−)-3-(4-(1-(4-(5-methoxy-3-methyl-1H-pyrazol-1-yl)phenoxy)butyl)benzamido)propanoic acid]"
15,1710,"CCCCc1cn(-c2ccc(OC(CCC)c3ccc(C(=O)NCCC(=O)O)cc3)cc2)cn1 (racemic) [Example 34, (+/−)-3-(4-(1-(4-(4-butyl-1H-imidazol-1-yl)phenoxy)butyl)benzamido)propanoic acid]"
16,1790,"CCCC(Oc1ccc(-n2c(C)c(C)c(C)c2C#N)cc1)c1ccc(C(=O)NCCC(=O)O)cc1 (racemic) [Example 35, (+/−)-3-(4-(1-(4-(2-cyano-3,4,5-trimethyl-1H-pyrrol-1-yl)phenoxy)butyl)benzamido)propanoic acid]"

row,Kb [nM],Structure (SMILES)
1,1820,"CCCC(Oc1ccc(-n2cc(C)c(C#N)c2C)cc1)c1ccc(C(=O)NCCC(=O)O)cc1 (racemic) [Example 36, (+/−)-3-(4-(1-(4-(3-cyano-2,4-dimethyl-1H-pyrrol-1-yl)phenoxy)butyl)benzamido)propanoic acid]"
2,1760,"CCCC(Oc1ccc(-n2ccc(C)c2C#N)cc1)c1ccc(C(=O)NCCC(=O)O)cc1 (racemic) [Example 37, (+/−)-3-(4-(1-(4-(2-cyano-3-methyl-1H-pyrrol-1-yl)phenoxy)butyl)benzamido)propanoic acid]"
3,2130,"CCCc1ccn(-c2ccc(OC(CCC)c3ccc(C(=O)NCCC(=O)O)cn3)cc2)n1 (racemic) [Example 38, (+/−)-3-(6-(1-(4-(3-propyl-1H-pyrazol-1-yl)phenoxy)butyl)nicotinamido)propanoic acid]"
4,2460,"CCCC(Oc1ccc(-n2cc(C)c(C)n2)cc1)c1ccc(C(=O)NCCC(=O)O)cc1 (racemic) [Example 39, (+/−)-3-(4-(1-(4-(3,4-dimethyl-1H-pyrazol-1-yl)phenoxy)butyl)benzamido)propanoic acid]"
5,2840,"CCCC(Oc1ccc(-n2ccn3nccc23)cc1)c1ccc(C(=O)NCCC(=O)O)cc1 (racemic) [Example 41, (+/−)-3-(4-(1-(4-(1H-imidazo[1,2-b]pyrazol-1-yl)phenoxy)butyl)benzamido)propanoic acid]"
6,2810,"CCCC(Oc1ccc(-n2ccc(CC)n2)cc1)c1ccc(C(=O)NCCC(=O)O)cc1 (racemic) [Example 42, (+/−)-3-(4-(1-(4-(3-ethyl-1H-pyrazol-1-yl)phenoxy)butyl)benzamido)propanoic acid]"
7,2910,"CCCC(Oc1ccc(-n2cnc(Cl)c2C)cc1)c1ccc(C(=O)NCCC(=O)O)cc1 (racemic) [Example 43, (+/−)-3-(4-(1-(4-(4-chloro-5-methyl-1H-imidazol-1-yl)phenoxy)butyl)benzamido)propanoic acid]"
8,3110,"CCCC(Oc1ccc(-n2cnc(CC)c2CC)cc1)c1ccc(C(=O)NCCC(=O)O)cc1 (racemic) [Example 44, (+/−)-3-(4-(1-(4-(4,5-diethyl-1H-imidazol-1-yl)phenoxy)butyl)benzamido)propanoic acid]"
9,3350,"CCCC(Oc1ccc(-n2nc(C)cc2C)cc1)c1ccc(C(=O)NCCC(=O)O)cc1 (racemic) [Example 45, (+/−)-3-(4-(1-(4-(3,5-dimethyl-1H-pyrazol-1-yl)phenoxy)butyl)benzamido)propanoic acid]"
10,6890,"CCCC(Oc1ccc(-n2cnc(C)n2)cc1)c1ccc(C(=O)NCCC(=O)O)cc1 (racemic) [Example 46, (+/−)-3-(4-(1-(4-(3-methyl-1H-1,2,4-triazol-1-yl)phenoxy)butyl)benzamido)propanoic acid]"
11,7810,"CCCC(Oc1ccc(-n2cncn2)cc1)c1ccc(C(=O)NCCC(=O)O)cc1 (racemic) [Example 47, (+/−)-3-(4-(1-(4-(1H-1,2,4-triazol-1-yl)phenoxy)butyl)benzamido)propanoic acid]"
12,8150,"CCCCc1nccn1-c1ccc(OC(CCC)c2ccc(C(=O)NCCC(=O)O)cc2)cc1 (racemic) [Example 48, (+/−)-3-(4-(1-(4-(2-butyl-1H-imidazol-1-yl)phenoxy)butyl)benzamido)propanoic acid]"
13,10300,"CCCC(Oc1ccc(-n2cnc(C)c2C)cc1)c1ccc(C(=O)NCCC(=O)O)cc1 (racemic) [Example 49, (+/−)-3-(4-(1-(4-(4,5-dimethyl-1H-imidazol-1-yl)phenoxy)butyl)benzamido)propanoic acid]"
14,1560,"CCCC(Oc1ccc(-c2cnn(CCC)c2)cc1)c1ccc(C(=O)NCCC(=O)O)cc1 (racemic) [Example 50, (+/−)-3-(4-(1-(4-(1-propyl-1H-pyrazol-4-yl)phenoxy)butyl)benzamido)propanoic acid]"
15,1810,"CCCC(Oc1ccc(-c2cc[nH]n2)cc1)c1ccc(C(=O)NCCC(=O)O)cc1 (racemic) [Example 51, (+/−)-3-(4-(1-(4-(1H-pyrazol-3-yl)phenoxy)butyl)benzamido)propanoic acid]"
16,2410,"CCCC(Oc1ccc(-c2c(C)noc2C)cc1)c1ccc(C(=O)NCCC(=O)O)cc1 (racemic) [Example 52, (+/−)-3-(4-(1-(4-(3,5-dimethylisoxazol-4-yl)phenoxy)butyl)benzamido)propanoic acid]"

row,Structure (SMILES),Kb [nM]
1,"CC(C)CC(Oc1ccc(C(=O)NCCC(=O)O)cc1)c1ccc(-n2cnc(C(F)(F)F)c2)cc1 (racemic) [Example 2, (+/−)-3-(4-(3-methyl-1-(4-(4-(trifluoromethyl)-1H-imidazol-1-yl)phenyl)butoxy)benzamido)propanoic acid]",5280
